{
  "source": "patent US9034624B2",
  "about": "“Process for the synthesis of conjugates of glycosaminoglycanes (GAG) with biologically active molecules, polymeric conjugates and relative uses thereof” (FIDIA FARMACEUTICI S.P.A., priority 2009, dated 2015)",
  "key": {"[1]": {"details": "cited from earlier work"}, "[2]": {"experiment": "glucose levels in blood, streptozocin-induced diabetes type I model", "assay_type": "in vivo, rat", "details": "for effect on glucose level in the blood: diabetic rats (streptozocin 70 mg/Kg), conjugate subcutaneous", "description": "3.00 g of the aldehyde derivative of HA (activated intermediate) according to Example 1 are dissolved at a concentration of 10 mg/ml in an acid environment by the presence of phosphoric acid at a temperature of 60° C. for 2 hours. 4×10^−5 moles of insulin, 4×10^−1 moles of cyanoborohydride are added to the hydrolyzed product previously cooled and the pH is regulated to 6.0. After 24 h of reaction, the adduct is purified and analyzed via dimensional exclusion chromatography; the relative chromatogram is visible in FIG. 8. The activity in vivo of the conjugate is evaluated on a model of induced diabetes type I in a rat after administration of streptozocin at a dose of 70 mg/Kg.\nThe HA-Insulin conjugate is administered subcutaneously at a dose of 5 or 20 μg of equivalent insulin. The biological activity of the conjugate is tested through the determination of the glucose levels in the blood of animals, measured by means of commercial kits (OneTouch® II, LifeScan, Johnson & Johnson), The control consists of healthy rats (group 1) and rats with induced diabetes treated with insulin (group 2). The results are illustrated in FIG. 9."}, "[3]": {"tested_on": "cyclic 2′,3′-cytidine monophosphate (2′,3′-CMC)", "experiment": "residual enzymatic activity of RNAse A, free or bound to HA (absorption increase at 287 nm)", "assay_type": "biochemical", "details": "hydrolysis of 2′,3′-CMC, absorption at 287 nm", "description": "1.00 g of the aldehyde derivative of HA according to Example 1 are dissolved at a concentration of 8 mg/ml in an acid environment by the presence of phosphoric acid at a temperature of 50° C. for 2 hours. The pH is regulated to 6.0 and 2×10^−5 moles of RNAse A and 2×10^−1 moles of cyanoborohydride are added to the hydrolyzed product previously cooled. At this pH the reaction takes place specifically at the N-terminal end of the protein. After 24 h of reaction, the adduct is purified by dialysis against water and then freeze-dried. The corresponding GPC chromatogram registered under the conditions described in Example 14 can be found in FIG. 7. This type of conjugate is optimally suitable for measuring in vitro the residual activity of the enzyme, using a specific kit based on the evaluation of the absorption increase at 287 nm with time, determined by hydrolysis of the specific synthetic substrate cyclic 2′,3′-cytidine monophosphate (2′,3′-CMC).\nA comparison of the residual activity of the enzyme, free or bound to HA, produces the following results: […]"}},
  "data": [
    {"molecule": "Calcitonin", "values": [
      {"measurement": "absorption half-life", "setting": "[1]", "result": "10 to 15", "unit": "min"},
      {"measurement": "elimination half-life", "setting": "[1]", "result": "50 to 80", "unit": "min"}
    ]},
    {"molecule": "HA-Insulin: hyaluronic acid aldehyde derivative conjugated to insulin", "values": [
      {"measurement": "effect on glucose level in the blood", "setting": "[2]; 5 or 20 μg equivalent insulin", "result": "exerted more slowly, but has a considerably prolonged duration with time"},
      {"measurement": "effectiveness relative to the conjugated drug (insulin)", "setting": "[2]; diabetic rats, subcutaneous", "result": "doubling the effectiveness"},
      {"measurement": "time span to bring glucose to a lower level than the group treated with insulin alone", "setting": "[2]; diabetic rats, subcutaneous, 5 or 20 μg equivalent insulin", "result": "≤ 5", "unit": "h"},
      {"measurement": "duration for which the glucose lowering effect is maintained", "setting": "[2]; diabetic rats, subcutaneous, duration of the experiment", "result": 24, "unit": "h"}
    ]},
    {"molecule": "insulin: free insulin, control treatment of diabetic rats [reference compound]", "values": [
      {"measurement": "effect on glucose level in the blood", "setting": "[2]; 5 or 20 μg equivalent insulin", "result": "sudden decrease in the glucose level in the blood, which however returns to high values in a relatively rapid time scale"}
    ]},
    {"molecule": "RNAsi A: free enzyme RNAse A (protein, UniProt P61823 27-150, looked up) Ribonuclease pancreatic: KETAAAKFERQHMDSSTSAASSSNYCNQMMKSRNLTKDRCKPVNTFVHESLADVQAVCSQKNVACKNGQTNCYQSYSTMSITDCRETGSSKYPNCAYKTTQANKHIIVACEGNPYVPVHFDASV", "values": [
      {"measurement": "% Relative enzymatic activity", "setting": "[3]", "result": 100, "unit": "%"}
    ]},
    {"molecule": "HA-Ac-RNAsi A: hyaluronic acid aldehyde derivative conjugated to RNAse A at the N-terminal end (conjugate, UniProt P61823 27-150, looked up, hyaluronic acid aldehyde conjugate, hyaluronic acid aldehyde derivative conjugated to RNAse A at the N-terminal end) Ribonuclease pancreatic: KETAAAKFERQHMDSSTSAASSSNYCNQMMKSRNLTKDRCKPVNTFVHESLADVQAVCSQKNVACKNGQTNCYQSYSTMSITDCRETGSSKYPNCAYKTTQANKHIIVACEGNPYVPVHFDASV", "values": [
      {"measurement": "% Relative enzymatic activity", "setting": "[3]", "result": 95.23, "unit": "%"}
    ]}
  ]
}
